Reference: ChEMBL document CHEMBL5331124, “Degradation of Hexokinase 2 Blocks Glycolysis and Induces GSDME-Dependent Pyroptosis to Amplify Immunogenic Cell Death for Breast Cancer Therapy” (J Med Chem, 2023)
Activity calls are given as the source filed them. The rule behind the calls is not given here.

Tests used:
[1] = test system: 4T1; experiment: Antitumor immunity against mouse 4T1 cells implanted in BALB/c mouse model assessed as downregulation of IL-10 expression in mouse tumor by ELISA analysis; assay type: functional, cell-based
[2] = test system: 4T1; experiment: Antitumor activity against mouse 4T1 cells implanted in BALB/c mouse model assessed as nucleus damage at 50 mg/kg, ip measured after 25 days by TUNEL staining based analysis; assay type: functional, organism-based; details: time 25.0 day
[3] = test system: 4T1; experiment: Induction of pyroptosis in mouse 4T1 cells assessed as early apoptotic cells at 20 uM incubated for 36 hrs by annexin V-FITC staining based flow cytometry analysis (reference value: 4.76 %); assay type: functional
[4] = Toxicity in BALB/c mouse implanted with mouse 4T1 cells assessed as pathological changes in kidney at 50 mg/kg, ip measured after 25 days in presence of cisplatin by Hematoxylin -eosin staining based analysis; assay type: organism-based; details: in vivo, 600 h, time 25 day
[5] = test system: 4T1; experiment: Induction of pyroptosis in mouse 4T1 cells assessed as late apoptotic cells at 20 uM incubated for 36 hrs by annexin V-FITC staining based flow cytometry analysis (Rvb =13.6 %); assay type: functional
[6] = biological target: Protein cereblon/Hexokinase-2 (Homo sapiens) (UniProt P52789+Q96SW2); experiment: PROTAC activity at CRBN/HK2 in human MDA-MB-231 cells assessed as […] ternary complex formation at 10 uM incubated for 24 hrs; assay type: cell-based
[7] = test system: 4T1; experiment: Induction of mitochondrial damage in mouse 4T1 cells at 20 uM measured for 36 hrs by Hoechst 33342 staining based confocal fluorescence microscopic analysis; assay type: functional, cell-based
[8] = test system: 4T1; experiment: Upregulation of PD-L1 expression in mouse 4T1 cells cytoplasm at 20 uM measured for 36 hrs; assay type: functional, subcellular
[9] = biological target: T1, Hexokinase-2 (Homo sapiens) (UniProt P52789); experiment: Induction of HK2 degradation in human MDA-MB-231 cells assessed as increase in Bax expression at 20 uM measured for 36 hrs by Western blot analysis; assay type: cell-based
T1 sequence (whole entry): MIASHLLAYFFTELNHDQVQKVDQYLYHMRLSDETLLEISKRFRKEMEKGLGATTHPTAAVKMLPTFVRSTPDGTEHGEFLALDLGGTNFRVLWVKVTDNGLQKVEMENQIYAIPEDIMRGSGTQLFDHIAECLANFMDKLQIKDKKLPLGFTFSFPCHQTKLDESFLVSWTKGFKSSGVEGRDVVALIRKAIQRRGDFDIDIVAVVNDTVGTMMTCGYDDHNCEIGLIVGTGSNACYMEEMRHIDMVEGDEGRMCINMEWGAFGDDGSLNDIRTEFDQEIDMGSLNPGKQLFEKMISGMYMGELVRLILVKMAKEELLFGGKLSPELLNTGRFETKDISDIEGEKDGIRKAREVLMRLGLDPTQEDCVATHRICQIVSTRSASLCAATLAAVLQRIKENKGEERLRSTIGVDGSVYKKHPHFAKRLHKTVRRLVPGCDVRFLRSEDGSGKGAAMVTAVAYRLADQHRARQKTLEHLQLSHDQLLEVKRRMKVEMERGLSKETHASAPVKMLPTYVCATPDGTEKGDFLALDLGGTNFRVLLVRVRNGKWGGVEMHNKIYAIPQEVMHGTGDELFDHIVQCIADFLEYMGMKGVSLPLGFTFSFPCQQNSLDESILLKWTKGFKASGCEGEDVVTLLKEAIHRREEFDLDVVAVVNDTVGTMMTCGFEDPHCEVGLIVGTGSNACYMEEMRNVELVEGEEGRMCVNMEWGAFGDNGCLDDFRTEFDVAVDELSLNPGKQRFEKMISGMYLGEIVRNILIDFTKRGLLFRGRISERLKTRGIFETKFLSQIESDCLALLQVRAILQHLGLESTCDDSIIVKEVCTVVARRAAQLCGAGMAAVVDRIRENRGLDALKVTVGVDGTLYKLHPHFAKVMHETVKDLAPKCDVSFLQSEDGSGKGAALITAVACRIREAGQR

[10] = Toxicity in BALB/c mouse implanted with mouse 4T1 cells assessed as pathological changes in liver at 50 mg/kg, ip measured after 25 days in presence of cisplatin by Hematoxylin -eosin staining based analysis; assay type: organism-based; details: in vivo, 600 h, time 25 day
[11] = Toxicity in BALB/c mouse implanted with mouse 4T1 cells assessed as effect on mean corpuscular hemoglobin concentration at 50 mg/kg, ip measured after 25 days in presence of cisplatin by routine blood test; assay type: organism-based; details: in vivo, 600 h, time 25 day
[12] = test system: 4T1; experiment: Antitumor immunity against mouse 4T1 cells implanted in BALB/c mouse model assessed as increase in ATP release in cell supernatant at 20 uM measured for 36 hrs by ELISA analysis; assay type: functional, cell-based
[13] = Toxicity in BALB/c mouse implanted with mouse 4T1 cells assessed as pathological changes in spleen at 50 mg/kg, ip measured after 25 days in presence of cisplatin by Hematoxylin -eosin staining based analysis; assay type: organism-based; details: in vivo, 600 h, time 25 day
[14] = Toxicity in BALB/c nude mouse xenografted with human MDA-MB-231 cells assessed as effect on hematocrit level at 50 mg/kg, ip measured after 30 days by routine blood test; assay type: organism-based; details: in vivo, 720 h, time 30 day
[15] = Toxicity in BALB/c nude mouse xenografted with human MDA-MB-231 cells assessed as effect on mean corpuscular hemoglobin concentration at 50 mg/kg, ip measured after 30 days by routine blood test; assay type: organism-based; details: in vivo, 720 h, time 30 day
[16] = test system: 4T1; experiment: Antitumor immunity against mouse 4T1 cells implanted in BALB/c mouse model assessed as increase in LDH release in cell supernatant at 20 uM measured for 36 hrs by ELISA analysis; assay type: functional, cell-based

Protein cereblon/Hexokinase-2 (Homo sapiens), sequence (Q96SW2 whole entry, looked up, one chain of several): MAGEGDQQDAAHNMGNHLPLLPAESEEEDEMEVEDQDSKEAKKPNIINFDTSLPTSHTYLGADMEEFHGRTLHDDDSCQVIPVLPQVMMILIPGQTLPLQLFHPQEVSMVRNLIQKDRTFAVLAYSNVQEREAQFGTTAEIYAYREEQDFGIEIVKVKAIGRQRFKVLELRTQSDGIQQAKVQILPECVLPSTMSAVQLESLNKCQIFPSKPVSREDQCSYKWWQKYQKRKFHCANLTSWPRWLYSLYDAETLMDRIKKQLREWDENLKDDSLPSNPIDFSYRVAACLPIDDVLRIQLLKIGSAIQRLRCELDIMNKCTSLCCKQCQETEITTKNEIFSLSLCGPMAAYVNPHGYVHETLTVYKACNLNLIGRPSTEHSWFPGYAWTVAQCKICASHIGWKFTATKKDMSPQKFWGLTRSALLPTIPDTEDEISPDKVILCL

## O=C1CCC(N2C(=O)c3cccc(NCCCCNC(=O)c4nn(Cc5ccc(Cl)cc5Cl)c5ccccc45)c3C2=O)C(=O)N1 (stereo unspecified)
[1]
  Activity: Active
[2]
  Activity: Active
[3]
  Activity: 9.85%
[4]
  Activity: Non-Toxic
[5]
  Activity: 43%
[6]
  Activity: Active
[7]
  Activity: Active
[8]
  Activity: Active
[9]
  Activity: Active
[10]
  Activity: Non-Toxic
[11]
  Activity: Non-Toxic
[12]
  Activity: Active
[13]
  Activity: Non-Toxic
[14]
  Activity: Non-Toxic
[15]
  Activity: Non-Toxic
[16]
  Activity: Active
